Laboratory results published in publication PMC9495854, “Novel Phenothiazine/Donepezil-like Hybrids Endowed with Antioxidant Activity for a Multi-Target Approach to the Therapy of Alzheimer’s Disease” (Antioxidants, 2022).
Marks after values point to notes of the source that are not given here.

Assays:
hBChE = target: T1, hBChE (Homo sapiens, UniProt P06276); assay: biochemical; settings: mean ± SEM
T1 construct: purchased
Experimental: The experiments were carried out using a properly modified version of Ellman’s spectrophotometric assay, adapted to a 96-well plate procedure. All reagents, including enzymes, were purchased from common suppliers. Incubation of the proper enzyme with the single compound at different concentrations was performed in clear flat-bottomed, 96-well plates (Greiner Bio-One GmbH, Frickenhausen, Germany) and in duplicate. […] Fluorescence measures were carried out using Tecan Infinite M1000 Pro multiplate reader (Tecan, Cernusco S.N., Italy). IC50 values and inhibition values were calculated as the mean of three independent experiments and are expressed as mean ± SEM [13].

FAAH Human recombinant = target: T2, FAAH Human recombinant (Homo sapiens, UniProt O00519); assay: FAAH inhibition, fluorometric assay; format: biochemical; settings: mean ± SEM; read-out: hFAAH (IC50)
T2 construct: purchased Cayman Chemical
T2 sequence (O00519 1-579): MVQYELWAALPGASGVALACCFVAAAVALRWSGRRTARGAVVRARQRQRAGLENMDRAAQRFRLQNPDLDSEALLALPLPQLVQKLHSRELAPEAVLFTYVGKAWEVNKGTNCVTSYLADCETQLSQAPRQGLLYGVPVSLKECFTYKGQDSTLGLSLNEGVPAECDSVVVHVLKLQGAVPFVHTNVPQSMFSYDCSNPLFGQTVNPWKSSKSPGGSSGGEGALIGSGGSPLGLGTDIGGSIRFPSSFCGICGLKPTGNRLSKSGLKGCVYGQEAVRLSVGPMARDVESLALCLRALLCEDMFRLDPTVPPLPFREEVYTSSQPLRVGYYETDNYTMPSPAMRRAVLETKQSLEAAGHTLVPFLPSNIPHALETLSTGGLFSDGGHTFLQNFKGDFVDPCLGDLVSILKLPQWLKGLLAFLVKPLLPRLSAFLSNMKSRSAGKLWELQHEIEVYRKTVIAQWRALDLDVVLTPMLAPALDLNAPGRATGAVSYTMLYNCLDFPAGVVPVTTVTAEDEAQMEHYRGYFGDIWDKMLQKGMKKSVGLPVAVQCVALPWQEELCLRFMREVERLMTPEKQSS
Experimental: The fatty acid amide hydrolase inhibition was measured for the final compounds using 96-well black flat-bottom microtiter NBS plates (COSTAR flat black). The total volume was 150 µL: the single hybrid was pre-incubated at different concentrations with the enzyme (FAAH Human recombinant, Cayman Chemical, Ann Arbor, MI, USA) in the specific fluorometric assay buffer (tris-HCl 125 mM, Na2EDTA · 2H2O 1 mM, pH = 9.0) for ten minutes at RT, using an orbital shaker. A 50 μL solution of the substrate (7-amino-4-methyl-2H-1-benzopyran-2-one-5Z,8Z,11Z,14Z-eicosatetraen-amide, at a final concentration of 5 µM) was then added. The plates were then incubated for 1 h at 37 °C in a Tecan Infinite M1000 Pro (Tecan, Cernusco S.N., Italy), reading fluorescence values from each well every 30s (λex = 340 nm, λem = 450 nm). The inhibitor activity was expressed as relative fluorescence units (RFU), using the values obtained from control wells lacking the inhibitor and blank wells lacking both inhibitor and enzyme to calculate percent inhibition values for each well. IC50 values are expressed as mean ± SEM of at least two independent measurements performed in triplicate.

[1] = MTT cell viability assay, SH-SY5Y; format: cell-based; settings: human, SH-SY5Y cells, SHSY-5Y; for IC50 at 1 h: 1 h exposure; for IC50 at 24 h: 24 h exposure, read-out: MTT cytotoxicity IC50 ± SEM SHSY-5Y 24 h
Experimental: Human hepatocellular liver carcinoma (HepG2) cell line and human neuroblastoma cell line, SH-SY5Y, were purchased from the American Type Culture Collection (ATCC, Manassas, VA, USA) and maintained at 37 °C in a humidified atmosphere (95% air and 5% carbon dioxide), and they were periodically screened for contamination. HepG2 cells were cultured in Eagle’s Minimum Essential Medium (MEM, Euroclone S.p.A., Pero, MI, Italy), supplemented with 10% Fetal Bovine Serum (FBS, Euroclone S.p.A., Pero, MI, Italy), 1% L-glutamine (Euroclone S.p.A., Pero, MI, Italy), 100 U/mL penicillin/streptomycin (Euroclone S.p.A., Pero, MI, Italy), 1% Non-Essential Amino Acids (NEAA, Euroclone S.p.A., Pero, MI, Italy). SH-SY5Y cells were grown in a 1:1 mixture of Dulbecco’s modified Eagle’s medium (DMEM)—high glucose (Euroclone S.p.A., Pero, MI, Italy) and Ham’s F12 Medium (Euroclone S.p.A., Pero, MI, Italy) supplemented with 10% FBS, 1% L-glutamine and 100 U/mL penicillin/streptomycin. For cell assays, cells were trypsinized using Trypsin-EDTA 1X in PBS (Euroclone S.p.A., Pero, MI, Italy).
HepG2 and SH-SY5Y cell viability was assessed as previously reported by using a conventional 3-(4,5-dimethylthiazol-2-yl)-2,5-diphenyltetrazolium bromide (MTT) assay. In brief, viable cells were seeded and grown for 24 h into a sterile 96-well cell culture cluster (Corning, Sigma-Aldrich, St. Louis, MO, USA) in a complete medium and maintained at 37 °C in a humidified atmosphere with 5% CO2. The cells were then added with different concentrations of each compound for a period of 1 h or 24 h. At the end, the culture medium was replaced by a solution of 0.5 mg/mL MTT (Sigma-Aldrich, St. Louis, MO, USA) in PBS. After 2 h of incubation at 37 °C in 5% CO2, the supernatant was carefully removed from each well, and the formazan crystals were dissolved in DMSO. The absorbance values were measured at 570 nm using Tecan Infinite M1000 Pro (Tecan, Cernusco S.N., Italy) and DMSO medium as blank solution. The results were reported as % cell viability = [optical density (OD) of tested compound/medium OD of control cells] × 100. The results are expressed as mean ± SEM of at least three independent measurements in triplicate.

T1 sequence (P06276 29-602): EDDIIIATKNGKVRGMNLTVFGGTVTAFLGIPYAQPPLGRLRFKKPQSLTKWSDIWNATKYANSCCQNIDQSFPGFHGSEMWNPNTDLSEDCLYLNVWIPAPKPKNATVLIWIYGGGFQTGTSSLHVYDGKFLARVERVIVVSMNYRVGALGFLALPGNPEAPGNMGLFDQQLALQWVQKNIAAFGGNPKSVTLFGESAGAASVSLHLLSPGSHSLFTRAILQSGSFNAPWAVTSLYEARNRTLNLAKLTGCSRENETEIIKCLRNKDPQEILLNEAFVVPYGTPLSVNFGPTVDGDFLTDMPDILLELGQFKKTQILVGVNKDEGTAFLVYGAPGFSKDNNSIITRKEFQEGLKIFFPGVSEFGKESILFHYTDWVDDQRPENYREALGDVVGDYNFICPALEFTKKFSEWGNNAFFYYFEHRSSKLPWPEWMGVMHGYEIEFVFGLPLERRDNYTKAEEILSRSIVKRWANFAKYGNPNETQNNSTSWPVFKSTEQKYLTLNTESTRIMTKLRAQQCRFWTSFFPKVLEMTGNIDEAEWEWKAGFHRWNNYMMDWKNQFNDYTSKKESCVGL

## O=C(NCCN1CCN(Cc2ccccc2F)CC1)c1ccc2c(c1)Nc1ccccc1S2 [Compound 12d, N-(2-(4-(2-Fluorobenzyl)piperazin-1-yl)ethyl)-10H-phenothiazine-2-carboxamide]
hBChE
  IC50: 4330 ± 190 nM
FAAH Human recombinant
  IC50: 9.65 ± 2.45 µM
[1]
  IC50 at 1 h: > 100 µM
  IC50 at 24 h: > 100 µM

## O=C(NCC1CCN(Cc2ccccc2)CC1)c1ccc2c(c1)Nc1ccccc1S2 [Compound 11a, N-((1-Benzylpiperidin-4-yl)methyl)-10H-phenothiazine-2-carboxamide]
hBChE
  IC50: 2160 ± 270 nM
FAAH Human recombinant
  IC50: 22.6 ± 1.6 µM
[1]
  IC50 at 1 h: > 100 µM
  IC50 at 24 h: > 100 µM

## CC(=O)N1c2ccccc2Sc2ccc(C(=O)NCCN3CCN(Cc4ccccc4Cl)CC3)cc21 [Compound 13, 10-Acetyl-N-(2-(4-(2-chlorobenzyl)piperazin-1-yl)ethyl)-10H-phenothiazine-2-carboxamide]
FAAH Human recombinant
  IC50: 16.9 ± 4.4 µM
[1]
  IC50 at 1 h: > 100 µM
  IC50 at 24 h: 55.3 ± 1.22 µM

## Cc1ccccc1CN1CCC(CNC(=O)c2ccc3c(c2)Nc2ccccc2S3)CC1 [Compound 11c, N-((1-(2-Methylbenzyl)piperidin-4-yl)methyl)-10H-phenothiazine-2-carboxamide]
hBChE
  IC50: 1470 ± 30 nM
FAAH Human recombinant
  IC50: 3.08 ± 0.44 µM
[1]
  IC50 at 1 h: > 100 µM
  IC50 at 24 h: 15.2 ± 1.2 µM

## O=C(NCCN1CCN(Cc2ccccc2)CC1)c1ccc2c(c1)Nc1ccccc1S2 [Compound 12a, N-(2-(4-Benzylpiperazin-1-yl)ethyl)-10H-phenothiazine-2-carboxamide]
hBChE
  IC50: 2020 ± 30 nM
FAAH Human recombinant
  IC50: 41.4 ± 0.9 µM
[1]
  IC50 at 1 h: > 100 µM
  IC50 at 24 h: > 100 µM

## O=C(NCCN1CCN(Cc2ccccc2Cl)CC1)c1ccc2c(c1)Nc1ccccc1S2 [Compound 12b, N-(2-(4-(2-Chlorobenzyl)piperazin-1-yl)ethyl)-10H-phenothiazine-2-carboxamide]
FAAH Human recombinant
  IC50: 6.31 ± 1.28 µM
[1]
  IC50 at 1 h: > 100 µM
  IC50 at 24 h: 31.8 ± 2 µM

## O=C(NCC1CCN(Cc2ccccc2Cl)CC1)c1ccc2c(c1)Nc1ccccc1S2 [Compound 11b, N-((1-(2-Chlorobenzyl)piperidin-4-yl)methyl)-10H-phenothiazine-2-carboxamide]
hBChE
  IC50: 1980 ± 120 nM
FAAH Human recombinant
  IC50: 3.8 ± 0.9 µM
[1]
  IC50 at 1 h: > 100 µM
  IC50 at 24 h: 21.2 ± 1 µM

## Cc1ccccc1CN1CCN(CCNC(=O)c2ccc3c(c2)Nc2ccccc2S3)CC1 [Compound 12c, N-(2-(4-(2-Methylbenzyl)piperazin-1-yl)ethyl)-10H-phenothiazine-2-carboxamide]
hBChE
  IC50: 2500 ± 60 nM
FAAH Human recombinant
  IC50: 7.33 ± 0.86 µM
[1]
  IC50 at 1 h: > 100 µM
  IC50 at 24 h: > 100 µM

## COc1cccc(CN2CCC(CNC(=O)c3ccc4c(c3)Nc3ccccc3S4)CC2)c1 [Compound 11e, N-((1-(3-Methoxybenzyl)piperidin-4-yl)methyl)-10H-phenothiazine-2-carboxamide]
hBChE; inhibition at 10 µM
  hBChE I% at 10 µM: 47% ± 1 ^b
FAAH Human recombinant
  IC50: 13 ± 3.4 µM
[1]
  IC50 at 1 h: > 100 µM
  IC50 at 24 h: 29 ± 1.1 µM

## O=C(NCC1CCN(Cc2ccccc2F)CC1)c1ccc2c(c1)Nc1ccccc1S2 [Compound 11d, N-((1-(2-Fluorobenzyl)piperidin-4-yl)methyl)-10H-phenothiazine-2-carboxamide]
hBChE
  IC50: 1200 ± 10 nM
FAAH Human recombinant
  IC50: 5.06 ± 0.4 µM
[1]
  IC50 at 1 h: > 100 µM
  IC50 at 24 h: 9.33 ± 0.86 µM
